Measured values taken from patent publication US20040029910A1, “Protoberberine derivatives which inhibit activity of the mitogen-activated protein kinase” (priority 2000, published 2004).

Tests used:
[1] = molecular target: T1, Wis1 kinase (Schizosaccharomyces pombe, UniProt P33886); test: Wis1 kinase activity and autophosphorylation ([γ-32P]ATP, SDS-PAGE, FIG. 2); format: biochemical; settings: purified GST-Wis1, kinase reaction 30° C. 30 minutes, autophosphorylation also measured
T1 construct: The genes wis1 and spc1 were cloned into the pRep1 vector containing nmt1 promoter; made in house; host or cells: Schizosaccharomyces pombe KGY246 (pRep1 vector, nmt1 promoter)
T1 sequence (P33886 1-605): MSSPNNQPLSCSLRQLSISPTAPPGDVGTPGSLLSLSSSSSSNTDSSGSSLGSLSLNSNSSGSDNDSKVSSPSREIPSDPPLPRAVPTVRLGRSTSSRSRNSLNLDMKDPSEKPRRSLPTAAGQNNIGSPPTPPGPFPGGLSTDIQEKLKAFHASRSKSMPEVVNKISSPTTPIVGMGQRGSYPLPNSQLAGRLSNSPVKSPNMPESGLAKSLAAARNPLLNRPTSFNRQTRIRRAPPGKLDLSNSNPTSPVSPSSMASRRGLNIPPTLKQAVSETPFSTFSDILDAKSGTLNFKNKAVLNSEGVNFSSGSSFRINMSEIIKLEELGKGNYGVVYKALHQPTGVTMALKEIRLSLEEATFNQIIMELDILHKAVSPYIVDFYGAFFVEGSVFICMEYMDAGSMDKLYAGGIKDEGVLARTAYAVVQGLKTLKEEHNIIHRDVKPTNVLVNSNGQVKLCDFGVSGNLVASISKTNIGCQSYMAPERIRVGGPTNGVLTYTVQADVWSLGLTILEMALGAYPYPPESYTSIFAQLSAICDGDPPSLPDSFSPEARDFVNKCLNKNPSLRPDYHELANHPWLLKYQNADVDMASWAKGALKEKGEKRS
Protocol: The genes wis1 and spc1 were cloned into the pRep1 vector containing nmt1 promoter of which expression was inhibited by thiamin in the medium and able to tag GST. The KGY246 cells, wild type Schizosaccharomyces pombe cells were transformed with this plasmid. The expression of Wis1 and Spc1 kinase tagged with GST was induced by the cultivation of the transformed cells in MM^AU medium containing 0.4 mM thiamin followed by cultivation to exponential phase(5×10^6 cells) for about 20 hours in 100 mL of MM^AU medium in which thiamin was withdrawn. After osmotic shock(0.6M KCl) and oxidative stress were given to the cells expressing Wis1 and Spc1 tagged with GST for 25 minutes, cells were recovered at 4° C., washed with ice-cold PBS/NaF(50 mM)/NaN3(1 mM) buffer and HB buffer(25 mM HEPES, pH 7.5, 60 mM β-glycerophosphate, 15 mM EGTA, 0.1 mM Na vanadate, 0.1% triton and hydrolyzed using glass bead and bead beater purchased from Sigma. The supernatant of hydrolyzed cells was incubated with 100 mM NaCl for salting-out to remove unnecessary proteins. After the supernatant was incubated with 0.045 g/ml GST beads for 1.5 hours, proteins not bound to GST beads were removed. Purified Wis1 and Spc1 kinases were separated on 7% SDS-PAGE and the degree of purification was confirmed by western blotting using GST antibody.
Before Wis1 and Spc1 kinases purified in example 4 were analyzed, they were pre-incubated in analyzing buffer of kinase (50 mM Tris-Cl pH7.4, 20 mM MgCl2, 5 mM EGTA, 2 mM Na vanadate, 1 mM DTT). The kinase reaction was performed at 30° C. for 30 minutes in the presence of 1 mg/ml myelin basic protein(MBP), 1 mM ATP and 20 uCi of [γ-^32p]ATP and then terminated by adding SDS sample buffer and heating at 90° C. for 5 minutes. The reaction mixtures were separated on SDS-polyacrylamide gel electrophoresis. After fixation with 10% acetic acid: 10% methanol and drying, the gel was exposed on X-ray film. When Wis1 is activated by stimulus, it also activates autophosphorylation. Therefore, the degree of Wis1 autophosphorylation was also measured.

[2] = molecular target: T2, Spc1 kinase (Schizosaccharomyces pombe, UniProt Q09892); test: Spc1 kinase activity, myelin basic protein substrate ([γ-32P]ATP, SDS-PAGE, FIG. 3); format: biochemical; settings: purified GST-Spc1, myelin basic protein as substrate
T2 construct: The genes wis1 and spc1 were cloned into the pRep1 vector containing nmt1 promoter; made in house; host or cells: Schizosaccharomyces pombe KGY246 (pRep1 vector, nmt1 promoter)
T2 sequence (Q09892 1-349): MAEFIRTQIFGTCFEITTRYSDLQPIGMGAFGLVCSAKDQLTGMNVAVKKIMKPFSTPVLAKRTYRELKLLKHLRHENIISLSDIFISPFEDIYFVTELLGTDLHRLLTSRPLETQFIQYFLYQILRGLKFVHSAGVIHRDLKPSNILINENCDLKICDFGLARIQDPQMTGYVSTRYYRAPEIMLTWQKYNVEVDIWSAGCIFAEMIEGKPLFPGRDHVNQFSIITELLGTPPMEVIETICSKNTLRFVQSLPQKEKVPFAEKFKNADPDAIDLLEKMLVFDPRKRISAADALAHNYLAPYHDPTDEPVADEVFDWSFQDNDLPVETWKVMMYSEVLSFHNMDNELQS
Protocol: The genes wis1 and spc1 were cloned into the pRep1 vector containing nmt1 promoter of which expression was inhibited by thiamin in the medium and able to tag GST. The KGY246 cells, wild type Schizosaccharomyces pombe cells were transformed with this plasmid. The expression of Wis1 and Spc1 kinase tagged with GST was induced by the cultivation of the transformed cells in MM^AU medium containing 0.4 mM thiamin followed by cultivation to exponential phase(5×10^6 cells) for about 20 hours in 100 mL of MM^AU medium in which thiamin was withdrawn. […]
Before Wis1 and Spc1 kinases purified in example 4 were analyzed, they were pre-incubated in analyzing buffer of kinase (50 mM Tris-Cl pH7.4, 20 mM MgCl2, 5 mM EGTA, 2 mM Na vanadate, 1 mM DTT). […] Therefore, the degree of Wis1 autophosphorylation was also measured.

[3] = test system: KGY246 (wild type); test: Growth (cell number) of wild type strain KGY246; format: cell-based, Schizosaccharomyces pombe
Protocol: To investigate the effect of protoberberine derivatives on the growth of cells, the cells of each strain were cultured in rich medium YE^AU to exponential phase(5×10^7 cells/mL). These cells were transferred to YE^AU medium and cultured for 12 hours. Then cell number was measured every 3 hours.

SMILES	inhibition of Wis1 kinase activity (in words) [1]	inhibition of Spc1 kinase activity (in words) [2]	cell number ([3]; Table 2, KGY246, time 14)	cell number ([3]; Table 2, KGY246, time 17)	cell number ([3]; Table 2, KGY246, time 20)	cell number ([3]; Table 2, KGY246, time 23)
COc1ccc2c(Cc3ccc(C(C)(C)C)cc3)c3[n+](cc2c1OC)CCc1cc2c(cc1-3)OCO2.[Cl-] [13-(4-t-butylbenzyl)berberine chloride]	directly inhibited					
CCCOc1cc2c(cc1OCCC)-c1cc3ccc(OCCC)c(OCCC)c3c[n+]1CC2.[I-] [2,3,9,10-tetrapropoxyprotoberberine iodide]		directly inhibited				
COc1ccc2c(Cc3ccc(O[Si](C)(C)C(C)(C)C)cc3)c3[n+](cc2c1OC)CCc1cc2c(cc1-3)OCO2.[Cl-] [13-(4-(t-butyldimethylsilyloxy)benzyl)berberine chloride]	directly inhibited		20	19	22	16
